# ± gives the expanded uncertainty stated by the source.
# How the values were obtained:
# [1] = xn = mol fraction of the nth substance listed; settings: 101 kPa, Liquid; for speed of sound: Sing-around technique in a fixed-path interferometer
# [2] = refractive index (Na D-line) (dimensionless); xn = mol fraction of the nth substance listed; settings: 101 kPa, Liquid
structure (smiles),measurement,setting,value
CC1CCCCC1 [methylcyclohexane] + Cc1cc(C)cc(C)c1,speed of sound,"[1]; 298.15 K, x1 = 1",1217 ± 5 m/s
same,mass density,"[1]; 298.15 K, x1 = 1",765 ± 0.9 kg/m3
same,viscosity,"[1]; 298.15 K, x1 = 1",0.676 ± 0.009 mPa·s
same,mass density,"[1]; 303.15 K, x1 = 1",760.7 ± 0.9 kg/m3
same,viscosity,"[1]; 303.15 K, x1 = 1",0.631 ± 0.009 mPa·s
same,mass density,"[1]; 308.15 K, x1 = 1",756.3 ± 0.9 kg/m3
same,viscosity,"[1]; 308.15 K, x1 = 1",0.59 ± 0.008 mPa·s
same,refractive index,"[2]; 298.15 K, x1 = 1",1.4217 ± 0.0025
same,refractive index,"[2]; 303.15 K, x1 = 1",1.4192 ± 0.0025
same,refractive index,"[2]; 308.15 K, x1 = 1",1.4163 ± 0.0025
"Cc1cc(C)cc(C)c1 [1,3,5-trimethylbenzene] + CC1CCCCC1",speed of sound,"[1]; 298.15 K, x2 = 0",1346 ± 6 m/s
same,speed of sound,"[1]; 298.15 K, x2 = 0.1007",1328 ± 6 m/s
same,speed of sound,"[1]; 298.15 K, x2 = 0.1993",1312 ± 6 m/s
same,speed of sound,"[1]; 298.15 K, x2 = 0.3035",1295 ± 6 m/s
same,speed of sound,"[1]; 298.15 K, x2 = 0.4063",1280 ± 5 m/s
same,speed of sound,"[1]; 298.15 K, x2 = 0.4974",1267 ± 5 m/s
same,speed of sound,"[1]; 298.15 K, x2 = 0.6085",1253 ± 5 m/s
same,speed of sound,"[1]; 298.15 K, x2 = 0.7027",1244 ± 5 m/s
same,speed of sound,"[1]; 298.15 K, x2 = 0.7973",1235 ± 5 m/s
same,speed of sound,"[1]; 298.15 K, x2 = 0.902",1225 ± 5 m/s
same,mass density,"[1]; 298.15 K, x2 = 0",861.2 ± 1.1 kg/m3
same,viscosity,"[1]; 298.15 K, x2 = 0",0.667 ± 0.011 mPa·s
same,mass density,"[1]; 298.15 K, x2 = 0.1007",851.6 ± 1.1 kg/m3
same,viscosity,"[1]; 298.15 K, x2 = 0.1007",0.653 ± 0.011 mPa·s
same,mass density,"[1]; 298.15 K, x2 = 0.1993",842 ± 1 kg/m3
same,viscosity,"[1]; 298.15 K, x2 = 0.1993",0.638 ± 0.01 mPa·s
same,mass density,"[1]; 298.15 K, x2 = 0.3035",832 ± 1 kg/m3
same,viscosity,"[1]; 298.15 K, x2 = 0.3035",0.629 ± 0.01 mPa·s
same,mass density,"[1]; 298.15 K, x2 = 0.4063",822 ± 0.9 kg/m3
same,viscosity,"[1]; 298.15 K, x2 = 0.4063",0.622 ± 0.01 mPa·s
same,mass density,"[1]; 298.15 K, x2 = 0.4974",813.1 ± 0.9 kg/m3
same,viscosity,"[1]; 298.15 K, x2 = 0.4974",0.62 ± 0.009 mPa·s
same,mass density,"[1]; 298.15 K, x2 = 0.6085",802.2 ± 0.9 kg/m3
same,viscosity,"[1]; 298.15 K, x2 = 0.6085",0.621 ± 0.009 mPa·s
same,mass density,"[1]; 298.15 K, x2 = 0.7027",793.1 ± 0.9 kg/m3
same,viscosity,"[1]; 298.15 K, x2 = 0.7027",0.627 ± 0.009 mPa·s
same,mass density,"[1]; 298.15 K, x2 = 0.7973",784 ± 0.9 kg/m3
same,viscosity,"[1]; 298.15 K, x2 = 0.7973",0.638 ± 0.009 mPa·s
same,mass density,"[1]; 298.15 K, x2 = 0.902",774.1 ± 0.9 kg/m3
same,viscosity,"[1]; 298.15 K, x2 = 0.902",0.654 ± 0.009 mPa·s
same,mass density,"[1]; 303.15 K, x2 = 0",857.1 ± 1.1 kg/m3
same,viscosity,"[1]; 303.15 K, x2 = 0",0.622 ± 0.01 mPa·s
same,mass density,"[1]; 303.15 K, x2 = 0.1007",847.5 ± 1.1 kg/m3
same,viscosity,"[1]; 303.15 K, x2 = 0.1007",0.612 ± 0.01 mPa·s
same,mass density,"[1]; 303.15 K, x2 = 0.1993",837.9 ± 1 kg/m3
same,viscosity,"[1]; 303.15 K, x2 = 0.1993",0.6 ± 0.01 mPa·s
same,mass density,"[1]; 303.15 K, x2 = 0.3035",827.9 ± 1 kg/m3
same,viscosity,"[1]; 303.15 K, x2 = 0.3035",0.592 ± 0.009 mPa·s
same,mass density,"[1]; 303.15 K, x2 = 0.4063",817.9 ± 1 kg/m3
same,viscosity,"[1]; 303.15 K, x2 = 0.4063",0.584 ± 0.009 mPa·s
same,mass density,"[1]; 303.15 K, x2 = 0.4974",808.9 ± 0.9 kg/m3
same,viscosity,"[1]; 303.15 K, x2 = 0.4974",0.603 ± 0.03 mPa·s
same,mass density,"[1]; 303.15 K, x2 = 0.6085",798.1 ± 0.9 kg/m3
same,viscosity,"[1]; 303.15 K, x2 = 0.6085",0.582 ± 0.009 mPa·s
same,mass density,"[1]; 303.15 K, x2 = 0.7027",788.9 ± 0.9 kg/m3
same,viscosity,"[1]; 303.15 K, x2 = 0.7027",0.588 ± 0.009 mPa·s
same,mass density,"[1]; 303.15 K, x2 = 0.7973",779.7 ± 0.9 kg/m3
same,viscosity,"[1]; 303.15 K, x2 = 0.7973",0.598 ± 0.009 mPa·s
same,mass density,"[1]; 303.15 K, x2 = 0.902",769.8 ± 0.9 kg/m3
same,viscosity,"[1]; 303.15 K, x2 = 0.902",0.622 ± 0.009 mPa·s
same,mass density,"[1]; 308.15 K, x2 = 0",853 ± 1.1 kg/m3
same,viscosity,"[1]; 308.15 K, x2 = 0",0.586 ± 0.01 mPa·s
same,mass density,"[1]; 308.15 K, x2 = 0.1007",843.3 ± 1.1 kg/m3
same,viscosity,"[1]; 308.15 K, x2 = 0.1007",0.577 ± 0.01 mPa·s
same,mass density,"[1]; 308.15 K, x2 = 0.1993",833.8 ± 1 kg/m3
same,viscosity,"[1]; 308.15 K, x2 = 0.1993",0.569 ± 0.009 mPa·s
same,mass density,"[1]; 308.15 K, x2 = 0.3035",823.7 ± 1 kg/m3
same,viscosity,"[1]; 308.15 K, x2 = 0.3035",0.559 ± 0.009 mPa·s
same,mass density,"[1]; 308.15 K, x2 = 0.4063",813.7 ± 1 kg/m3
same,viscosity,"[1]; 308.15 K, x2 = 0.4063",0.553 ± 0.009 mPa·s
same,mass density,"[1]; 308.15 K, x2 = 0.4974",804.8 ± 0.9 kg/m3
same,viscosity,"[1]; 308.15 K, x2 = 0.4974",0.547 ± 0.009 mPa·s
same,mass density,"[1]; 308.15 K, x2 = 0.6085",793.9 ± 0.9 kg/m3
same,viscosity,"[1]; 308.15 K, x2 = 0.6085",0.548 ± 0.008 mPa·s
same,mass density,"[1]; 308.15 K, x2 = 0.7027",784.7 ± 0.9 kg/m3
same,viscosity,"[1]; 308.15 K, x2 = 0.7027",0.553 ± 0.008 mPa·s
same,mass density,"[1]; 308.15 K, x2 = 0.7973",775.5 ± 0.9 kg/m3
same,viscosity,"[1]; 308.15 K, x2 = 0.7973",0.566 ± 0.008 mPa·s
same,mass density,"[1]; 308.15 K, x2 = 0.902",765.6 ± 0.9 kg/m3
same,viscosity,"[1]; 308.15 K, x2 = 0.902",0.575 ± 0.008 mPa·s
same,refractive index,"[2]; 298.15 K, x2 = 0",1.496 ± 0.0025
same,refractive index,"[2]; 298.15 K, x2 = 0.1007",1.489 ± 0.0025
same,refractive index,"[2]; 298.15 K, x2 = 0.1993",1.4817 ± 0.0025
same,refractive index,"[2]; 298.15 K, x2 = 0.3035",1.474 ± 0.0025
same,refractive index,"[2]; 298.15 K, x2 = 0.4063",1.4663 ± 0.0025
same,refractive index,"[2]; 298.15 K, x2 = 0.4974",1.4593 ± 0.0025
same,refractive index,"[2]; 298.15 K, x2 = 0.6085",1.4508 ± 0.0025
same,refractive index,"[2]; 298.15 K, x2 = 0.7027",1.4436 ± 0.0025
same,refractive index,"[2]; 298.15 K, x2 = 0.7973",1.4363 ± 0.0025
same,refractive index,"[2]; 298.15 K, x2 = 0.902",1.4285 ± 0.0025
same,refractive index,"[2]; 303.15 K, x2 = 0",1.4936 ± 0.0025
same,refractive index,"[2]; 303.15 K, x2 = 0.1007",1.4865 ± 0.0025
same,refractive index,"[2]; 303.15 K, x2 = 0.1993",1.4809 ± 0.0025
same,refractive index,"[2]; 303.15 K, x2 = 0.3035",1.473 ± 0.0025
same,refractive index,"[2]; 303.15 K, x2 = 0.4063",1.4647 ± 0.0025
same,refractive index,"[2]; 303.15 K, x2 = 0.4974",1.4565 ± 0.0025
same,refractive index,"[2]; 303.15 K, x2 = 0.6085",1.4529 ± 0.008
same,refractive index,"[2]; 303.15 K, x2 = 0.7027",1.4421 ± 0.0025
same,refractive index,"[2]; 303.15 K, x2 = 0.7973",1.4347 ± 0.0025
same,refractive index,"[2]; 303.15 K, x2 = 0.902",1.4265 ± 0.0025
same,refractive index,"[2]; 308.15 K, x2 = 0",1.4913 ± 0.0025
same,refractive index,"[2]; 308.15 K, x2 = 0.1007",1.4843 ± 0.0025
same,refractive index,"[2]; 308.15 K, x2 = 0.1993",1.4771 ± 0.0025
same,refractive index,"[2]; 308.15 K, x2 = 0.3035",1.4692 ± 0.0025
same,refractive index,"[2]; 308.15 K, x2 = 0.4063",1.4614 ± 0.0025
same,refractive index,"[2]; 308.15 K, x2 = 0.4974",1.4544 ± 0.0025
same,refractive index,"[2]; 308.15 K, x2 = 0.6085",1.4459 ± 0.0025
same,refractive index,"[2]; 308.15 K, x2 = 0.7027",1.4386 ± 0.0025
same,refractive index,"[2]; 308.15 K, x2 = 0.7973",1.4312 ± 0.0025
same,refractive index,"[2]; 308.15 K, x2 = 0.902",1.4233 ± 0.0025
CC1CCCCC1 [methylcyclohexane] + COc1ccccc1,speed of sound,"[1]; 298.15 K, x1 = 1",1217 ± 5 m/s
same,mass density,"[1]; 298.15 K, x1 = 1",765 ± 0.9 kg/m3
same,viscosity,"[1]; 298.15 K, x1 = 1",0.676 ± 0.009 mPa·s
same,mass density,"[1]; 303.15 K, x1 = 1",760.7 ± 0.9 kg/m3
same,viscosity,"[1]; 303.15 K, x1 = 1",0.631 ± 0.009 mPa·s
same,mass density,"[1]; 308.15 K, x1 = 1",756.3 ± 0.9 kg/m3
same,viscosity,"[1]; 308.15 K, x1 = 1",0.59 ± 0.008 mPa·s
same,refractive index,"[2]; 298.15 K, x1 = 1",1.4217 ± 0.0025
same,refractive index,"[2]; 303.15 K, x1 = 1",1.4192 ± 0.0025
same,refractive index,"[2]; 308.15 K, x1 = 1",1.4163 ± 0.0025
